Results from publication PMC10447287, “Optimisation of Pharmaceutical Cocrystal Dissolution Performance through a Synergistic Precipitation Inhibition” (Pharmaceutical Research, 2023).

Test: FFA-NIC cocrystal solubility and phase solubility diagrams (PSD)
Assay type: physicochemical
Settings: for FFA concentration at eutectic point / Ksp / SAB: 37°C
Description: For a 1:1 AB cocrystal without consideration of ionization of each component, its molar solubility SAB is calculated as [21]1 SAB=Ksp=CACB where Ksp is the solubility product of the AB cocrystal, and CA and CB (μmol/mL) are the molar concentrations of A and B where the solution is in equilibrium with the solid residues including cocrystal solids. When the solution is in equilibrium with both the drug and cocrystal solids, it is called the eutectic point where the component concentrations in solution are designated as CA_eut and CB_eut .
In order to determine the FFA-NIC cocrystal solubility, the physical mixtures of the FFA I and NIC solids and a constant 10 mL of the medium (i.e., DDW or PBS pH 4.5 in the absence and presence of a predissolved polymer, i.e., 0.2 mg/mL PVP-VA, 1 mg/mL PEG or 0.2 mg/mL SLP, or a combination, i.e., 0.2 mg/mL PVP-VA + 1 mg/mL PEG, 0.2 mg/mL PVP-VA + 0.2 mg/mL SLP), representing 10% w/w and 90% w/w of the total weight of a sample, were used. More than eight different ratios of the FFA I and NIC solids in the physical mixtures (Table S1 in the supporting materials) were prepared and then each of them was transferred into a 20 mL glass vial containing a magnetic stirrer (3 × 20 mm) with 10 mL of the solution prepared above. The samples were placed in the Polar Bear Plus Crystal (Cambridge Reactor Design Ltd, UK) and kept at 37 ± 0.5°C for 24 h. After that, the supernatant of each of the samples was separated from excess solids by centrifugation at 13,000 RPM for 1 min in an MSE Micro Centaur. HPLC was used to determine the concentrations of FFA and NIC. Solid residues obtained from the experiments were dried at room temperature and analysed by PXRD. If the FFA-NIC cocrystal solids were found in the solid residues of a sample ( i ), the molar concentrations of FFA ( CFFA,iexp ) and NIC ( CNIC,iexp ) (μmol/mL) obtained were used to determine the solubility product Ksp,iexp of FFA-NIC cocrystal by2 Ksp,iexp=CFFA,iexp×CNIC,iexp
The optimal solubility product Kspoptimal of FFA-NIC cocrystal is obtained by minimizing the sum square error (SSE) of the optimal value with each of the individual experimental values KSP,iexp .3 Kspoptimal=min∑i=1n(Kspoptimal-ksp,iexp)^2 where n is the total number of vials having the cocrystal solids in the residues.
In this work, the optimal value of Kspopitmal was obtained using the inbuilt “fminbnd” function in MATLAB. If both the FFA-NIC cocrystal and FFA I solids were found in the solid residues of a sample, the measured concentrations of FFA ( CFFAexp ) and NIC ( CNICexp ) were the transition concentrations at the eutectic point.

[1] = DDW with PEG (1 mg/mL) + PVP-VA (0.2 mg/mL)
[2] = DDW with SLP (0.2 mg/mL) + PVP-VA (0.2 mg/mL)
[3] = PBS pH 4.5 with PEG (1 mg/mL) + PVP-VA (0.2 mg/mL)
[4] = PBS pH 4.5 with PVP-VA (0.2 mg/mL)
[5] = PBS pH 4.5 with SLP (0.2 mg/mL)
[6] = PBS pH 4.5 with SLP (0.2 mg/mL) + PVP-VA (0.2 mg/mL)

SMILES: NC(=O)c1cccnc1.O=C(O)c1ccccc1Nc1cccc(C(F)(F)F)c1 [FFA-NIC cocrystal]
- Ratio of FFA concentration at eutectic point with parent drug (DDW with PEG (1 mg/mL)): 4.47
- Ratio of FFA concentration at eutectic point with parent drug [1]: 7.27
- Ratio of cocrystal solubility with parent drug [1]: 4382.27
- FFA concentration at eutectic point [1]: 0.26 µmol/mL
- Ksp [1]: 156.76 μmol^2/mL^2
- SAB [1]: 12.52 µmol/mL
- FFA concentration at eutectic point (DDW with PEG (1 mg/mL)): 0.16 µmol/mL
- Ksp (DDW with PEG (1 mg/mL)): 136.09 μmol^2/mL^2
- SAB (DDW with PEG (1 mg/mL)): 11.67 µmol/mL
- Ratio of FFA concentration at eutectic point with parent drug (DDW with PVP-VA (0.2 mg/mL)): 23.20
- Ratio of cocrystal solubility with parent drug (DDW with PVP-VA (0.2 mg/mL)): 4805.23
- FFA concentration at eutectic point (DDW with PVP-VA (0.2 mg/mL)): 0.83 µmol/mL
- Ksp (DDW with PVP-VA (0.2 mg/mL)): 171.89 μmol^2/mL^2
- SAB (DDW with PVP-VA (0.2 mg/mL)): 13.11 µmol/mL
- Ratio of FFA concentration at eutectic point with parent drug (DDW with SLP (0.2 mg/mL)): 4.47
- Ratio of cocrystal solubility with parent drug (DDW with SLP (0.2 mg/mL)): 3218.49
- Ratio of FFA concentration at eutectic point with parent drug [2]: 31.03
- Ratio of cocrystal solubility with parent drug [2]: 6264.77
- FFA concentration at eutectic point [2]: 1.11 µmol/mL
- Ksp [2]: 224.10 μmol^2/mL^2
- SAB [2]: 14.97 µmol/mL
- FFA concentration at eutectic point (DDW with SLP (0.2 mg/mL)): 0.16 µmol/mL
- Ratio of FFA concentration at eutectic point with parent drug (DDW, pure solution): 6.71
- Ratio of cocrystal solubility with parent drug (DDW, pure solution): 2649.04
- FFA concentration at eutectic point (DDW, pure solution): 0.24 µmol/mL
- Ksp (DDW, pure solution): 94.76 μmol^2/mL^2
- SAB (DDW, pure solution): 9.73 µmol/mL
- Ratio of FFA concentration at eutectic point with parent drug (PBS pH 4.5, pure solution): 2.46
- Ratio of cocrystal solubility with parent drug (PBS pH 4.5, pure solution): 1535.91
- FFA concentration at eutectic point (PBS pH 4.5, pure solution): 0.16 µmol/mL
- Ksp (PBS pH 4.5, pure solution): 99.78 μmol^2/mL^2
- SAB (PBS pH 4.5, pure solution): 9.99 µmol/mL
- Ratio of FFA concentration at eutectic point with parent drug (PBS pH 4.5 with PEG (1 mg/mL)): 4.93
- Ratio of cocrystal solubility with parent drug (PBS pH 4.5 with PEG (1 mg/mL)): 1601.02
- Ratio of FFA concentration at eutectic point with parent drug [3]: 10.16
- Ratio of cocrystal solubility with parent drug [3]: 2171.41
- FFA concentration at eutectic point [3]: 0.66 µmol/mL
- Ksp [3]: 141.26 μmol^2/mL^2
- SAB [3]: 11.89 µmol/mL
- FFA concentration at eutectic point (PBS pH 4.5 with PEG (1 mg/mL)): 0.32 µmol/mL
- Ksp (PBS pH 4.5 with PEG (1 mg/mL)): 104.01 μmol^2/mL^2
- SAB (PBS pH 4.5 with PEG (1 mg/mL)): 10.20 µmol/mL
- Ratio of FFA concentration at eutectic point with parent drug [4]: 6.93
- Ratio of cocrystal solubility with parent drug [4]: 2040.80
- FFA concentration at eutectic point [4]: 0.45 µmol/mL
- Ksp [4]: 132.58 μmol^2/mL^2
- SAB [4]: 11.51 µmol/mL
- Ratio of FFA concentration at eutectic point with parent drug [5]: 2.46
- Ratio of cocrystal solubility with parent drug [5]: 1772.19
- Ratio of FFA concentration at eutectic point with parent drug [6]: 10.16
- Ratio of cocrystal solubility with parent drug [6]: 2443.18
- FFA concentration at eutectic point [6]: 0.66 µmol/mL
- Ksp [6]: 158.72 μmol^2/mL^2
- SAB [6]: 12.60 µmol/mL
- FFA concentration at eutectic point [5]: 0.16 µmol/mL
- potential increase in the FFA solubility based on FFA concentration at eutectic point (in DDW): 30 fold
- potential increase in the FFA solubility based on FFA concentration at eutectic point (in PBS pH 4.5): tenfold
- increase of the FFA solubility achieved by cocrystal (by Eq. 1 cocrystal solubility) (in some cases, Table III): > 1000 fold
